Measured values: patent US10363261B2, “Enolase inhibitors and methods of treatment therewith” (Board of Regents, The University of Texas System, priority 2015, dated 2019)
Several values for one entry are separate records, joined by “and”; a condition that tells them apart may be missing. Equal entries are not always repeated.

Experiments:
[1] = biological target: ENO2 (Homo sapiens, UniProt P09104); assay: Ligand-induced thermal shift assay on cell lysates (D423 overexpressing ENO2); type: binding; set-up: expressed in transfected cells; host or cells: D423 (D423-MG) human glioma cells, clone pCMV ENO2 1x
Description: Lysates: The lysates were prepared in 20 mM Tris-HCl, 1 mM EDTA and 1 mM β-mercaptoethanol at pH 7.4 and homogenized using a Polytron homogenizer three times for a period of 10 s followed by sonication, after which the lysates were cleared by centrifugation at 20,000 g for 10 minutes. Lysates were diluted (1:100) in Enolase enzymatic activity buffer as mentioned above. […] The lysates were then centrifuged at 20,000 g for 10 minutes. Supernatant and pellet were then separated and NuPage LDS Sample buffer (Life Technologies # NP0007) was added.
As an additional test of SF2312 binding to the enolase protein, ligand-induced thermal shift assays were performed on cell lysates under the same conditions as we performed the enzymatic assay (Martinez Molina, et al., 2013). The principal of the assay is that heat-denatured proteins precipitate out of solution when their hydrophobic core is exposed. As a result, heat denatured proteins disappear from the lysate after centrifugation, whereas native properly folded proteins remain in solution. The levels of specific proteins in the supernatant, such as non-denatured proteins, are followed by immunoblotting as a function of increasing temperature.

[2] = test system: ATP levels in D423 ENO1-deleted glioma cells; assay: ATP content (CellTiter-Glo); type: cell-based, human; conditions: 8 hours of treatment
Description: Cell proliferation of glioma cell lines was assayed either through crystal violet staining or by live-cell confluence measurements with the IncuCyte (Essen BioScience). Growth curves using the IncuCyte were generated by confluence imaging every 4 hours with duplicate replicates with an initial seeding of 1500 cells/well in 96-well plates. At the indicated time point, cells were fixed with 10% formalin and stained with crystal violet. Dye extraction was performed using 10% acetic acid solution, and absorbance was read at 595 nm. Apoptotic cells were counted by staining with YO-PRO®-1 Iodide (491/509, Life Technologies, Y3603). Apoptotic cells become permeable to YO-PRO®-1 while live cells are not stained. Alternatively, Propidium Iodide was employed (Life Technologies) instead of YO-PRO. Total cell number was quantified by Hoechst 33342 (Cat# H3570 Invitrogen). Cells were seeded as 2×10^3 cells/well in 96-well plates and treated in the presence or absence of doxycycline. On the day of apoptosis survey, old media was removed and each well was filled to 100 μl with fresh media. Hoechst and YO-PRO®-1 were mixed in 1:100 PBS and 10 μl of the mixture was added in each well gently without touching the cells for a final dilution of 1:1000 from stock. Plates were then incubated at 37° C. for 2 hours. Image capture and quantification was done by High Content Screening System—Operetta (Perkin Elmer). ATP content was measured with the luciferase/luciferin CellTiter-Glo® assay. Briefly, 100 μl of CellTiter-Glo® assay media was added to 96-well plates containing 100 μl of media and cells. Lysis was achieved by the […] in the buffer and vigorous pipetting, and luminescence was determined using an Omega Luminescence Plate Reader (BMG Labtech). Results were expressed relative to vehicle treated control.

[3] = test system: Vinculin or Triosephosphate isomerase; assay: Thermal shift assay, internal controls; type: binding, human
Description: (§1) Thermal shift assays were conducted as described in Martinez Molina, et al. (2013), on lysates of D423 cell line overexpressing ENO1 and ENO2, on recombinant human ENO1 and ENO2 purified from E. coli as well as intact D423 ENO2 overexpressing glioma cells. […] Lysates were diluted (1:100) in Enolase enzymatic activity buffer as mentioned above. Diluted lysates were treated with SF2312, PhAH or vehicle and heated on a C1000 Thermal cycler (Bio-rad) with a linear temperature gradient (50 to 82.5° C. in 2.5° C. increments) for 3 minutes (FIG. 24). The lysates were then centrifuged at 20,000 g for 10 minutes. Supernatant and pellet were then separated and NuPage LDS Sample buffer (Life Technologies # NP0007) was added. Western Blots were performed as described previously (Muller, et al., 2012). The following antibodies were used: ENO1 (Abcam # ab155102), ENO2 (Dako # M087301-2), Vinculin (EMD Millipore #05-386), pan-ENO (Santa Cruz Biotechnology, sc-7455) and TPI (Proteintech #10713-1-AP). Recombinant human ENO2: The same procedure was carried out on purified recombinant ENO2 from E. coli, utilizing the purified protein generated for the X-ray crystallography studies. […]

[4] = biological target: T1, enolase 2 (Homo sapiens, UniProt P09104); assay: Thermal shift assay in intact glioma cells overexpressing ENO2 (D423 ENO2); type: cell-based; conditions: 100 μM inhibitor
T1 construct: expressed in transfected cells; host or cells: D423 (D423-MG) human glioma cells, clone pCMV ENO2 1x
Description: as §1

[5] = test system: lactate/glucose in D423 ENO1-rescued glioma cells; assay: 13C-NMR tracing of uniformly labeled 13C-glucose to 13C-lactate, rescued cells; conditions: even at 200 μM
Description: Glucose labeled with heavy, non-radioactive, ^13C at carbon C-1 and ^13C at all carbon atoms were purchased from Cambridge Isotopes (CLM-420-1 and CLM-1396, respectively). Glucose free DMEM media was supplemented with 10 mM ^13C-1 or ^13C-all labeled Glucose. NMR metabolic tracing was performed by substituting conventional DMEM medium with glucose free DMEM medium, to which ^13C-1 glucose (Cambridge Isotopes) was supplemented at 10 mM. […] After 4 days, conditioned media was extracted with 80% methanol at −80° C., lyophilized and resuspended in D2O. Proton-decoupled ^13C NMR spectra were acquired using a 500 MHZ Bruker instrument in the M. D. Anderson NMR core facility.

Chain of ENO2 (P09104 whole entry): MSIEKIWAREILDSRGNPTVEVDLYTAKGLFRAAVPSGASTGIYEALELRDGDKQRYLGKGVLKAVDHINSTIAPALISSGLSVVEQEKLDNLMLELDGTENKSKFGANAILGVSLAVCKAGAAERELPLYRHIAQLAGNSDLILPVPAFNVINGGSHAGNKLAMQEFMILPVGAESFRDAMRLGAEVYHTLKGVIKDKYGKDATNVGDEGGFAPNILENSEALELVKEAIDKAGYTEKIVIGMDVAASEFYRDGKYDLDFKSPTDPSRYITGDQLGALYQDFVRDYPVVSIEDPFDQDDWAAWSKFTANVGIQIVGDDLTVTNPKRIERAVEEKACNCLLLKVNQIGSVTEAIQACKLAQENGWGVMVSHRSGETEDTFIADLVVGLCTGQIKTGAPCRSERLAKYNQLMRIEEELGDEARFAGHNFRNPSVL
T1 sequence (P09104 whole entry): as above

O=C1C(P(=O)(O)O)CC(O)N1O (racemic) [SF2312, 3-dihydroxyphosphoryl-1,5-dihydroxy-2-pyrrolidone]
shift in the thermal denaturation of ENO2 ([1]; 1 μM inhibitor): > 7.5 °C and 7.5 °C
melting temperature of ENO2 with inhibitor ([1]; 1 μM, from ~67.5 ° C. without inhibitor): > 75 °C
concentration reducing ATP levels by >40% [2]: 12.5 µM
fold more potent than PhAH at decreasing ATP levels [2]: ~8 fold
effect on the thermal stability of the internal controls [3]: neither PhAH nor SF2312 had any effect
shift of the thermal melting curve of ENO2 in intact glioma cells [4]: ~15 °C
effect on lactate/glucose in ENO1-rescued cells [5]: neither PhAH nor SF2312 decreased lactate/glucose
